Measured values reported in patent US7795332B2, “Method of removing fluorinated carboxylic acid from aqueous liquid” (priority 2005, dated 2010).
Marks after values point to notes of the source that are not given here.

Assay: Determination of bio-accumulation: urinary clearance pharmacokinetic study in rats
Settings: for T½: renal elimination half-life, urine by fluorine NMR, exponential curve fitting; for Compound-related Effects: 73 micro Moles per kg oral gavage, clinical signs and gross necropsy 96 hours post-dose
[1] = recovery of administered amount in urine after 96 h, 73 micro Moles per kg, oral gavage
[2] = 73 micro Moles per kg, oral gavage
[3] = no parent compound in urine, based on elimination of the major metabolite C3F7-O-CHFCOO-, 73 micro Moles per kg, oral gavage

| Structure (SMILES) | % Recovery (96 h) [1] [%] | T½ [2] [h] | % Recovery (96 h) [3] | T½ (h) [3] | Compound-related Effects |
| --- | --- | --- | --- | --- | --- |
| N.O=C(O)C(F)(F)OC(F)(F)C(F)(F)C(F)(F)OC(F)(F)F [Compound 1, CF3—O—(CF2)3—O—CF2—COONH4] | 73 |  |  |  |  |
| N.O=C(O)C(F)(F)OC(F)(F)OC(F)(F)F [Compound 2, CF3—OCF2—O—CF2—COONH4] | 96 | 12 |  |  |  |
| N.O=C(O)C(F)(F)OC(F)(F)OC(F)(F)OC(F)(F)F [Compound 3, CF3—OCF2—OCF2—OCF2—COONH4] | 100 | 12 |  |  |  |
| N.O=C(O)C(F)(F)OC(F)(F)C(F)(F)C(F)(F)OC(F)(F)F [Compound 4, CF3—(OCF2)3—OCF2—COONH4] | 50 |  |  |  |  |
| N.O=C(O)C(F)(F)C(F)(F)OC(F)(F)F [Compound 6, CF3—O—CF2—CF2—COONH4] | 100 | 11 |  |  |  |
| N.O=C(O)C(F)(F)C(F)(F)OC(F)(F)C(F)(F)F [Compound 7, C2F5—O—CF2—CF2—COONH4] | 100 | 10 |  |  |  |
| N.O=C(O)C(F)(F)C(F)(F)OC(F)(F)C(F)(F)C(F)(F)C(F)(F)F [Compound 9, C4F9—O—CF2—CF2—COONH4] | 42 | 31 |  |  | Hepatomegaly |
| N.O=C(O)C(F)(F)C(F)(F)C(F)(F)C(F)(F)C(F)(F)OC(F)C(F)(F)F (stereo not shown) [Compound 14, CF3—CFH—O—(CF2)5—COONH4] | 32 | 24 |  |  | Hepatomegaly |
| N.O=C(O)C(F)(F)C(F)(F)C(F)(F)C(F)(F)C(F)(F)C(F)(F)C(F)(F)F [Compound C-1, C7F15COONH4, reference compound] | 6 | ~550 |  |  | Hepatomegaly |
| N.O=C(O)C(F)(F)OC(F)(F)C(F)(OC(F)(F)C(F)(F)C(F)(F)F)C(F)(F)F (stereo not shown) [Compound C-3, CF3CF2CF2OCF(CF3)CF2OCF2COONH4, reference compound] | 5 | 95 |  |  | Hepatomegaly |

Further lines, with some results ahead:

| % Recovery (96 h) [1] [%] | T½ [2] [h] | % Recovery (96 h) [3] | T½ (h) [3] | Structure (SMILES) | Compound-related Effects |
| --- | --- | --- | --- | --- | --- |
| 82 | 12 |  |  | N.O=C(O)C(F)(F)C(F)(F)OC(F)(F)C(F)(F)C(F)(F)F [Compound 8, C3F7—O—CF2—CF2—COONH4] |  |
| 84 | 12 |  |  | N.O=C(O)C(F)(F)C(F)OC(F)(F)C(F)(F)C(F)(F)OC(F)(F)F (stereo not shown) [Compound 11, CF3—O—CF2—CF2—CF2—O—CHF—CF2—COONH4] |  |
| 95 | 11 |  |  | N.O=C(O)C(F)OC(F)(F)C(F)(F)C(F)(F)OC(F)(F)F (stereo not shown) [Compound 12, CF3—O—CF2—CF2—CF2—O—CHF—COONH4] |  |
| 94 | 11 |  |  | N.O=C(O)C(F)(F)C(F)OC(F)(F)C(F)(F)C(F)(F)F (stereo not shown) [Compound 13, C3F7—O—CFH—CF2COONH4] |  |
| 95 | 8 |  |  | N.O=C(O)C(F)(F)C(F)(F)C(F)(F)OC(F)C(F)(F)F (stereo not shown) [Compound 15, CF3—CFH—O—(CF2)3—COONH4] |  |
|  |  | 65* % | 13* h | N.O=C(O)COC(F)(F)C(F)OC(F)(F)C(F)(F)C(F)(F)F (stereo not shown) [Compound 16, C3F7—O—CFH—CF2—O—CH2—COONH4] |  |
